Consider one molecule from patent US12194024B2, “Pharmaceutical composition of MDM2 inhibitor and use thereof for preventing and/or treating disease” (ASCENTAGE PHARMA (SUZHOU) CO., LTD., priority 2019, dated 2025).

The test system of test [1] is MV-4-11. Put plainly: CellTiter-Glo (CTG) cell proliferation experiment. The test is classed as cell-based. Particulars: Homo sapiens, MV4-11, TP53 wt, FLT3-ITD, 72 hours, read-out: IC50 values, nM (Mean ± SD, n = 2 or 3).
The subject of test [2] is OCI-AML-3. Put plainly: CellTiter-Glo (CTG) cell proliferation experiment. The note with it: Homo sapiens, TP53 wt, FLT3 wt, 72 hours, read-out: IC50 values, nM (Mean ± SD, n = 2 or 3). The test is classed as cell-based.
The test system of test [3] is HL-60. Put plainly: CellTiter-Glo (CTG) cell proliferation experiment. The test is classed as cell-based. The note with it: Homo sapiens, TP53 Del, 72 hours, read-out: IC50 values, nM (Mean ± SD, n = 2 or 3).
In test [4] the test system is A549. Put plainly: CTG cell proliferation experiment, NSCLC. Particulars: Homo sapiens; A549, STK11 and KRAS co-mutated; 72 hours. The test is classed as cell-based. Here is the method: (§1) For the combined experiment, the final volume of 2 test substances is 5 μl/well.
(§2) The nonlinear regression data analysis method of Graphpad Prism 6.0 software ([…]) is used for calculating IC50.
(§3) For the combined experiment, the average fluorescence value of the 3 repeated wells of the single drug control is normalized for calculating cell survival rate.

The subject of test [5] is NCI-H2122. In words: CTG cell proliferation experiment, NSCLC. Particulars: Homo sapiens; NCI-H2122, STK11 and KRAS co-mutated; 72 hours. The test is classed as cell-based. Here is the method: as §1, §2, §3
In test [6] the test system is NCI-H460. Put plainly: CTG cell proliferation experiment, NSCLC. The note with it: Homo sapiens; NCI-H460, STK11 and KRAS co-mutated; 72 hours. The test is classed as cell-based. As for the experimental part: as §1, §2, §3
The test system of test [7] is human MOLM-13 (AML) xenograft tumor. In words: Systemic MOLM-13 AML mouse xenograft model. The test is classed as in vivo, NOD SCID mice. The text has this: The comparison among three or more groups uses one-way ANOVA. If the F value has a significant difference, multiple comparisons should be carried out after the ANOVA analysis. All data analysis uses SPSS 18.0. Prism (the sixth version) is used for graphing. Attune N×T flow cytometer (Thermo Fisher Scientific Inc.) is used for analyzing tumor infiltrating lymphocytes. Data acquisition and analysis use Analyst Software 1.6.3 work station (AB sciex, Ontario, Canada). For MOLM-13 systemic model, the death date of the last mouse is used for analyzing the median total survival and generating the Kaplan-Meier curve. Logarithmic rank test and Bonferroni multiple test are used for comparing the survival curves of different treatment groups.
For systemic AML model, six- to eight-week-old female NOD SCID mice are pretreated with cyclophosphamide (150 mg/kg, intraperitoneally) continuously for two days. Then the MOLM-13 systemic AML xenograft model is established by inoculating 1×10^7 cells into the caudal vein intravenously.
For systemic AML model, the six- to eight-week-old female NOD SCID mice are pretreated with cyclophosphamide (150 mg/kg, intraperitoneally) continuously for two days. Then the MOLM-13 systemic AML xenograft model is established by inoculating 1×10^7 cells into the caudal vein intravenously. Cells grow 3 days, then are randomly divided into groups for treatment of a single drug or drugs in combination using a carrier, compound 2 (50 mg/kg, is taken orally each day for 7 days), and Aza (1.5 mg/kg, intravenous injection each day for 7 days). In the treatment process and after the treatment is completed, the mice are monitored for the occurrence of hind leg paresis (HLP) or the abdominal swelling caused by disease progression, and a body weight loss >20%.
A systemic MOLM-13 mouse xenograft model is established, and the anti-leukemia effect of compound 2 following the administration regimen of 80 mg/kg dosage, orally (po), and once every two days (q2d) is evaluated in the model (corresponding to the number 57 regimen in table 7). The experiment has two groups, and 15 animals in each group, in one group, 5 animals are used for the analysis of the proportion of CD45+ AML cells, and the remaining 10 animals are used for recording the living condition of the mice. 18 days after the cell inoculation, according to the experimental regimen, 5 animals are selected randomly from each group, bone marrow and spleen are collected, the proportion of human CD45+ AML cells in bone marrow and spleen is analyzed using flow cytometry to evaluate the disease burden of animals.
Systemic tumor model is established by inoculating MOLM-13 tumor cells through caudal vein, the administration starts on the third day after the cell inoculation, and the day of the administration is defined as the first day. Compound 2 is administered following 30 mg/kg, q2d regimens for 21 days. Azacitidine is administered following 1.5 mg/kg, qd regimens for seven days (corresponding to the number 81 regimen in table 7). […]

Setting [8] is: 80 mg/kg, p.o., q2d × 3 w, versus vehicle.
The mark [9] stands for this setting: 80 mg/kg, po, q2d, 18 days after cell inoculation.

As for `CCN1[C@@H](C(=O)NC23CCC(C(=O)O)(CC2)CC3)[C@H](c2cccc(Cl)c2F)[C@]2(C(=O)Nc3cc(Cl)ccc32)C12CCCCC2` [Compound 2], the IC50 in test [1] stood at 166 ± 42.4 nM; in test [2], 316 ± 97 nM; in test [3], 2560 ± 582 nM; in test [4], 33 nM; in test [5], 79 nM; in test [6] it was 330 nM. Besides, the Median survival in test [7] (80 mg/kg, p.o., q2d × 3 w, vehicle 18.5 days) was 37.0 days; in test [7] (Compound 2 30 mg/kg q2d 21 days, Azacitidine 1.5 mg/kg qd seven days, vehicle 16 days) it was 24 days. The “Prolonged days of survival” value in test [7] (setting [8]) was found to be 18.5 days. Moreover, the “prolongation of median survival” value in test [7] (setting [8]) came to 100%. Moreover, in test [7] (setting [9]), the “proportion of human CD45+ AML cells in bone marrow” value is “less than 0.1%”. In test [7] (setting [9]), the “proportion of human CD45+ AML cells in spleen” value is given as “less than 0.1%”. Further, the “Prolonged survival” value in test [7] (Compound 2 30 mg/kg q2d 21 days, Azacitidine 1.5 mg/kg qd seven days, versus vehicle) came out at 8 days. Moreover, in test [7] (compound 2 alone, human MOLM-13 systemic xenograft), the minimum effective dosage is listed as 20 mg/kg.
